Patent EP1379634B1 (THE UNIVERSITY OF GEORGIA RESEARCH FOUNDATION, INC., priority 2001, dated 2002)
Starred links: 1 amine or outer side, 2 acyl side, 3 side chain; linkers in the order of their positions; H or OH if unused. Residues, ends and D or L forms follow the SMILES beside them. *: point of attachment. AFC = O=c1cc(C(F)(F)F)c2ccc(N*)cc2o1; Suc = O=C(CCC(=O)[*:2])[*:1]

Tested on: T. solium purified cysteine protease
Test: Human IgG degradation, western blot (Step IV)
Type: biochemical, Taenia solium
Conditions: overnight, 37°C, 18 hrs
Method: To conduct this assessment, a western blot was performed. IgG digestion was detected by incubating 20 ul of T. solium purified enzyme or T. […] extract with 1 ug of human IgG (Sigma, St. Louis) in a final volume of 100 ul of assay buffer. Exogenous thiol activation was assessed by incubating the assay in the presence or absence of cysteine. The catalytic class of the IgG protease was determined by pre-incubating the following proteinase inhibitors at their active concentrations, with the enzyme: E 64 (10^-6 M , cysteine proteinases), phenylmethylsulfonyl fluoride (PMSF) (10^-3 M, serine proteinases), pepstatin A (10^-6M, aspartic proteinases), and 1,10 phenanthroline (10^-3 M, metalloproteinases), and the vehicle, Mu-Leu-Tyr-AFC (10^-3 M). After addition of IgG, the assay was incubated overnight (37°C, 18 hrs). Subsequently, 100 ul of the mixture was boiled in sodium dodecyl sulfate polyacrylamide gel electrophoresis (SDS-PAGE) sample buffer with 2% 2-mercaptoethanol, separated by 12.5% SDS-PAGE, and blotted onto a polyvinylidene difluoride membrane. Tris buffered saline containing 0.1 % bovine serum albumin and 0.05% Tween 20 (TBS-BSA) was used to block nonspecific binding. […]

Structure (SMILES) | inhibition of cleavage of human IgG
CC(C)C[C@H](NC(=O)CCC(=O)O)C(=O)N[C@@H](Cc1ccc(O)cc1)C(=O)Nc1ccc2c(C(F)(F)F)cc(=O)oc2c1 [suc-Leu-Tyr-AFC] (Suc-Leu-Tyr-{AFC}) | ability to inhibit
CC(C)CC(NC(=O)C1OC1C(=O)O)C(=O)NCCCCNC(=N)N (centres unmarked) [E64, reference compound] | Inhibition was noted
